Here are results for five compounds from PMC8825254, “Rational design of Striga hermonthica-specific seed germination inhibitors” (Plant Physiology, 2021).

The term IC50 denotes the concentration that gives 50% inhibition. As a reminder, the inhibition is the percentage by which the read-out fell short of the control.

Where two headings read alike, the source gives them in different places.

For one data set, the target named is ShHTL5 (Striga hermonthica, UniProt A0A0M5I297). Description: YLG hydrolysis competition assay with ShHTL5. Format: biochemical. To be noted: result in words.
The next data set has as its target T1, OsD14 (Oryza sativa subsp. japonica, UniProt Q10QA5).
T1 construct: made in house; host or cells: Escherichia coli BL21 (DE3)
T1 sequence (Q10QA5 1-318): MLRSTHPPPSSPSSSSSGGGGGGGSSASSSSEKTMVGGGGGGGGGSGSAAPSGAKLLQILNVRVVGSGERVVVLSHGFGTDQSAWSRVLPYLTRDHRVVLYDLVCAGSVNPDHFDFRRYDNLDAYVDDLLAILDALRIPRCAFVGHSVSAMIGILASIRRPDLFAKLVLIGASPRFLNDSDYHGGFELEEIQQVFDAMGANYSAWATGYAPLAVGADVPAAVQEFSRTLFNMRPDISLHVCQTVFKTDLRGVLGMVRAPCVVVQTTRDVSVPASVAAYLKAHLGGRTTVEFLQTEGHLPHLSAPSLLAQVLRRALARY
Description: YLG hydrolysis competition assay with OsD14. The format is biochemical, rice (Oryza sativa).

Data set [1] relates to Rice seeds (cv Nipponbare). Description: Rice germination and seedling growth in response to inhibitors. Format: in vivo, rice (Oryza sativa). To be noted: result in words. As to the method: Rice seeds (cv Nipponbare) were surface sterilized in 2.5% NaClO and 0.05% of Tween-20 for 10 min, and rinsed 6 times with sterilized MilliQ water. Seeds were imbibed in sterilized water at 30°C for 24 h in the dark. Next day, ∼3 mL of each inhibitor at different concentrations (3, 6, 12, 25, 50, and 100 μM) was added along with 0.5 Murashige and Skoog (MS) medium into 24-well plate, and one imbibed rice seed was placed in each well. The experiment was performed in six replications (one plant/well, n = 6) for each concentration. Nontreated rice seeds in 0.5-MS solution were included as a control. Seeds were allowed to germinate at 30°C in the dark for 48 h for monitoring seeds germination, and seeds were moved to a growth chamber with white fluorescent light (130–180 μM m^−2 s^−1) and12 h:12 h (Light/Dark (L/D)) period at 28°C. After 1 week, length of rice seedlings was measured and recorded, and pictures of seedlings were taken.

Data set [2] addresses T2, ShHTL7 (Striga hermonthica, UniProt A0A0M3PNA2).
T2 sequence (A0A0M3PNA2 1-271): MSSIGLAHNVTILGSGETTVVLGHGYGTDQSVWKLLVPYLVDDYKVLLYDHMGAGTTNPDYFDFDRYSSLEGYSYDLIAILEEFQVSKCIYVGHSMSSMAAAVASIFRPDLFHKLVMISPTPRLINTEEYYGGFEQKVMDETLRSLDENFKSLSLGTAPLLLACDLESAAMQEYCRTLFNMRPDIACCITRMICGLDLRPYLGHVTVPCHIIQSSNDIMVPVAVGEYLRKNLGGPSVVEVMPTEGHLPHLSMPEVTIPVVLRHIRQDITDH
Put plainly: YLG hydrolysis competition assay with ShHTL7. Format: biochemical. The method, then: About 0.33 µM of ShHTL7 protein was used to conduct in vitro hydrolysis of YLG (1 µM) as a substrate in a total volume of 100 µL of phosphate-buffered saline (1× PBS) containing 0.1% DMSO in 96-well black plate (Greiner Kremsmünster, Austria; [Tsuchiya et al., 2015]). The hydrolysis of YLG over time and changes in the fluorescence intensity was measured by SpectraMax i3 (Molecular Devices, San Jose, CA, USA) using an excitation wavelength of 480 nm and detection wavelength of 520 nm and recorded at 10 min intervals for 2 h. YLG in 1× PBS without protein was used as a control. […] Measurement of the fluorescence was conducted in SpectraMax i3 (Molecular Devices) using the above-mentioned method. The relative fluorescence unit was calculated by subtracting the auto-fluorescence of YLG in the buffer from the fluorescence values of YLG in the presence of a protein. The inhibitory curve and IC50 were determined using https://www.aatbio.com/tools/ic50-calculator website.

In another data set the test system is Striga hermonthica seeds. Description: Striga seed germination bioassay (seeds from Sudan). The format is in vivo. The conditions noted are these: for Reduction in Striga seed germination compared to the GR24 treatment: 20-40 µM inhibitor. The method, then:
Striga seeds were surface sterilized by 20% Sodium hypochlorite (NaClO) for 10 min followed by successive 6 times washing with sterilized MilliQ water. Seeds were kept to dry under the laminar flow cabinet, and ∼50–100 sterilized Striga seeds were spread uniformly on a glass fiber filter paper disc (9 mm). For preconditioning, around 12 discs were put in a petri plate on a filter paper moistened with 3 mL sterilized MilliQ water. Plates were then sealed with parafilm and kept in an incubator for 10 d at 30°C (in dark). After preconditioning, plates were removed from the incubator and dried, and discs were pre-treated with different concentrations (0, 5, 10, 20, 40, 80, 160, 320, and 640 μM) of KK023-N1, KK023-N2, Triton X-100, or KK094 for 24 h. Next day, a combination of the inhibitors (same concentrations) along with GR24 (0.5 nM or 1 nM) was applied, and discs were incubated at 30°C for 24 h. For inhibitory effect of KK023-N1 and -N2 on Striga seeds obtained from Kenya, seeds were treated with (0, 3, 6, 12, 25, 50,100, 200, 400, and 800 μM). After image scanning, germinated and nongerminated seeds were counted and germination rate (%) was calculated by using SeedQuant software ([Braguy et al., 2021)].

Data set [3] has as its target T2, ShHTL7. Put plainly: DSF thermal stability of ShHTL7. The format is binding. The conditions noted are these: for Effect on SYPRO orange fluorescence peak of ShHTL7: 0 to 100 µM, result in words. The method, then:
About 10 µM of ShHTL7 purified protein was incubated with various concentrations of KK023-N1, Triton X-100, or KK094 (ranging from 0 to 100 µM) for 30 min. Then SYPRO Orange (reporter dye) was added to 1× final concentration. The reactions were carried out in 25 µL 1× PBs buffer. The assay was performed on CFX96 Real-Time System (BIO-RAD, Hercules, CA, USA) thermal cycler on 96-well quantitative polymerase chain reaction (qPCR) white plate, and the plate was sealed with adhesive qPCR plate seal to prevent samples evaporation ([Bai et al., 2019]). First, samples were heated to 25°C for 1 min followed by linear increase in the temperature ramp from 25°C to 99°C at a rate of 0.5°C/15 s. The change in the protein folding was monitored by the changes in the fluorescence of the reporter dye, and the data were analyzed by the machine software that plots the inflection point of fluorescence against temperature. Data were exported into Excel, and replicates were averaged to generate the graph.

Data set [4] deals with Rice WT (cv Nipponbare) seedlings. Description: Rice micro tillering assay, WT, hydroponics. Format: in vivo, rice (Oryza sativa). The conditions noted are these: 10, 50 and 100 µM, 2 weeks, result in words. The method, then: (§1) Rice seeds of WT (cv Nipponbare) or SL-deficient mutant (d17), were surface sterilized with 2.5% NaClO and 0.05% of Tween-20 for 10 min, and rinsed 6 times with sterilized MilliQ water. About 30 seeds were placed on sterilized Magenta GA-7 plant culture box containing 0.5% MS medium with 0.4% agar and incubated at 30°C in dark. After 2 d, boxes were moved to a growth chamber and allowed to grow for another 5 d under fluorescent white light (130–180 μM m^−2 s^−1). Equally grown seedlings were transplanted in 50-mL black tubes filled with Hoagland nutrient solution (1 seedling/tube). Seedlings were treated with 10, 50, and 100 µM of each compound (KK023-N1, Triton X-100, and KK094). The compounds were applied twice a week for 2 weeks to test their effects on the growth of WT plants. SL-deficient seedlings (d17) were treated as WT but with the addition of 1 µM GR24. Number of tillers per plant, plant height, and dry biomass were measured at final harvest.

A further data set has as its system Rice d17 seedlings. Put plainly: Rice micro tillering assay, SL-deficient mutant d17 with GR24. Format: in vivo, rice (Oryza sativa). To be noted: compound with 1.0 µM GR24; result in words. The method, then: as §1
Data set [5] deals with T2, ShHTL7. Details: method as in Holbrook-Smith et al., 2016; Yoneyama, 2016. To be noted: previously reported, ref Holbrook-Smith et al., 2016, Yoneyama, read-out: IC50, competitive inhibition of ShHTL7-mediated YLG hydrolysis; cited from earlier work.
The next data set deals with Striga hermonthica. Description: Striga emergence study in infested rice pots under greenhouse conditions. The conditions noted are these: for Change in Striga emergence compared to mock: Figure 10B; for Rice plant height, change: Striga-infested pots, Figure 10C. Format: in vivo, Striga hermonthica on rice cv IAC165. As to the method: Approximately 6,000 Striga seeds (20 mg) were weighed, mixed with sand/soil mixture (1:2 ratio), and put into a 3-L perforated plastic pot containing 0.5-L clean sand/soil mixture in the bottom. The pots were kept under greenhouse-controlled conditions at 30°C and kept moist with water for Striga preconditioning for 10 d. Formulated KK023-N1 and Triton X-100 were applied (at 100 mL per pot) at 10 and 100 µM concentration. Then three rice seedlings (cv IAC165, 10 d old) were planted in each pot after 24 h of inhibitor application. All the treatments were applied continuously twice per week for 4 weeks. Water with same amount of solvent (Cyclohexanone+Atlas-G) was used as a control. Pots were irrigated with 200 mL of Hoagland’s nutrient solution with low phosphate (4 µM) when needed. The rice plants were allowed to grow under greenhouse conditions for 10 weeks and the emerged Striga plants were counted from each pot. The height of rice plants was also measured to see impact of Striga infestation on host growth.

[6] abbreviates: 0.33 µM ShHTL7, 1 µM YLG, read-out: IC50, inhibition of ShHTL7-mediated YLG hydrolysis.

Sequence of ShHTL5 (A0A0M5I297 entry or part of it): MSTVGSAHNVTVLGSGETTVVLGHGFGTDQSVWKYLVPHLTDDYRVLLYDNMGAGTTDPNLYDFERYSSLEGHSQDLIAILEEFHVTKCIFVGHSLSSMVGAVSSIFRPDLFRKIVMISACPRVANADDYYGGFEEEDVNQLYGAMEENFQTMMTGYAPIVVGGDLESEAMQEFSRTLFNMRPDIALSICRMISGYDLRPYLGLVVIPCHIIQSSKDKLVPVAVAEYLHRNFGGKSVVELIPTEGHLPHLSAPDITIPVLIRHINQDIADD

For the compound `COc1ccc(CCCc2cccc3c2CCN3C(=O)n2nccn2)cc1` [KK023-N2], the “Effect on YLG hydrolysis by ShHTL5” value at ShHTL5 is listed as “did not influence the YLG hydrolysis”. Moreover, the IC50 on OsD14 (Figure 3D-F, mean ± SD, n = 3, no unit printed with values (x-axis µM), read-out: IC50, OsD14-mediated YLG hydrolysis (Figure 3)) was above 50 µM. Moreover, in data set [1] (all treatments (3-100 µM), 1 week), the “Effect on rice seedling plant height” value is listed as “no effect on plant height was observed”. Besides, in data set [1] (up to 100 µM), the “Effect on rice seed germination” value is on record as “did not detect any effect on seed germination” and the “Phenotype of treated rice seedlings versus control” value was “did not show any significant phenotypic difference”. On ShHTL7 [2], this compound registered a 50% inhibitory concentration (IC50) of 2150 nM. For the same compound, the “Reduction in Striga seed germination compared to the GR24 treatment” value with Striga hermonthica seeds (GR24 0.5 or 1.0 nM) is on record as “around 42%”.
For the compound `O=C(N1CCc2ccccc21)n1ccnn1` [KK094], the “Effect on SYPRO orange fluorescence peak of ShHTL7” value at ShHTL7 [3] is reported as “did not change the fluorescence peak”. For the same compound, in [4], the “Effect on dry biomass of WT rice” value is “reduction in plant height and dry biomass”; the “Effect on plant height of WT rice” value is “reduction in plant height”; the “Effect on tillering of WT rice” value is “significant increase in rice tillering”. Besides, the IC50 on ShHTL7 [2] is above 25000 nM. Besides, the “Effect on GR24 action on tillering of d17 rice” value in the data set on Rice d17 seedlings is “blocked D14, resulting in increased tillering phenotype”. Further, the “Reduction in Striga seed germination” value in the data set with Striga hermonthica seeds (20 µM inhibitor, GR24 0.5 or 1.0 nM) worked out at 50%. For the same compound, the “Inhibition of Striga seed germination” value with Striga hermonthica seeds (80 µM, result in words) is given as “complete inhibition”. The inhibition at 100 µM in the data set with Striga hermonthica seeds (Striga hermonthica, 100 µM) is 100%.
In the case of `CC1=C[C@H](O/C=C2/C(=O)O[C@@H]3c4ccccc4C[C@H]23)OC1=O` [GR24], the IC50 at OsD14 (0.33 µM OsD14, 1 µM YLG, read-out: IC50, inhibition of OsD14-mediated YLG hydrolysis) turned out to be 2.59 µM; at ShHTL7 [2] (setting [6]), 270 nM. Further, at ShHTL7 [3], the “Decrease of ShHTL7 melting temperature” value worked out at 7 °C. On ShHTL7 [3] (high concentrations of compound, 50°C without), the “Melting temperature of ShHTL7” value amounted to 43 °C.
Consider `CCOC(=O)C1(Cc2cccc(C(F)(F)F)c2)CCN(Cc2ccc(C#CCCO)cc2)CC1` [Soporidine], for which the IC50 on ShHTL7 [5] is 12500 nM.
Regarding Triton X-100 [reference compound], in the data set on Striga hermonthica (10 µM), the “Change in Striga emergence compared to mock” value is given as -13% and the “Rice plant height, change” value was -23%. In addition, in the data set with Striga hermonthica (100 µM), the “Change in Striga emergence compared to mock” value is -25% and the “Rice plant height, change” value was -4%. Besides, the “Effect on SYPRO orange fluorescence peak of ShHTL7” value at ShHTL7 [3] is listed as “reduction in the peak fluorescence”. Further, the IC50 at ShHTL7 [2] (setting [6]) was 470 nM. Also, the “Effect on GR24 action on tillering of d17 rice” value in the data set on Rice d17 seedlings is listed as “did not block the GR24 effect on rice tillers”. Also, the “Reduction in Striga seed germination compared to the GR24 treatment” value with Striga hermonthica seeds (GR24 0.5 or 1.0 nM) came to 31%.
